Assay results as given in publication PMC11031295 (ChemMedChem, 2024).
“Also recorded” adds a separate entry of the source.

Columns and labels:
ERCC1 = details: binding pocket on ERCC1; cited from earlier work
[1] = target: T1, 15N-labeled human ERCC1 fragment containing residues 96-214 (Homo sapiens, UniProt P07992); assay: Backbone chemical shift perturbation mapping by NMR; type: binding; details: 0.25 mM ERCC1, titration with compound 1, pH 7.5, 28 °C
T1 sequence (P07992 96-214): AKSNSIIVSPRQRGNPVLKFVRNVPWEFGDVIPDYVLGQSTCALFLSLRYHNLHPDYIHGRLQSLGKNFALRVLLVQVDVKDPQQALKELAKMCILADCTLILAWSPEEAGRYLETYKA

[2] = target: T2, ERCC1/XPA protein-protein interaction (MBP-ERCC1 central domain / fluorescein-labeled XPA67-80 peptide) (Homo sapiens, UniProt P07992); assay: Fluorescence polarization; type: binding
T2 sequence (P07992 96-214): T1 sequence (P07992 96-214)

| Compound | binding affinity to ERCC1 (in words) (ERCC1) | binding site on ERCC1 (in words) [1] | EC50 [2] |
| --- | --- | --- | --- |
| 14-mer peptide corresponding to residues 67-80 of XPA: truncated 14-mer peptide corresponding to residues 67-80 of XPA (KIIDTGGGFILEEE; UniProt P23025 67-80, looked up, fragment) | sub-micromolar affinity |  |  |
| Cc1cc(C)c(C#N)c(SCC(O)c2cccc([N+](=O)[O-])c2)n1 (stereo not drawn) [Compound 1, 2-[2-hydroxy-2-(3-nitrophenyl)ethyl]sulfanyl-4,6-dimethyl-pyridine-3-carbonitrile] |  | binds within the same site as the truncated XPA67-80 peptide; also recorded: binds to the same site as the truncated XPA 14-mer; also recorded: binds to the same central domain of ERCC1 as truncated XPA peptides | 21 µM |
